{
  "source": "ChEMBL document CHEMBL4828763",
  "about": "“Discovery of Potent and Selective CDK9 Degraders for Targeting Transcription Regulation in Triple-Negative Breast Cancer” (J Med Chem, 2021)",
  "key": {"[1]": {"test_system": "MDA-MB-468", "experiment": "Growth inhibition of human MDA-MB-468 cells assessed as cell viability measured after 4 days by WST8 assay", "format": "functional, cell-based", "details": "MDA-MB-468, 96 h"}, "[2]": {"test_system": "BT-549", "experiment": "Growth inhibition of human BT-549 cells assessed as cell viability measured after 4 days by WST8 assay", "format": "functional, cell-based", "details": "BT-549, 96 h"}, "[3]": {"test_system": "MDA-MB-231", "experiment": "Growth inhibition of human MDA-MB-231 cells assessed as cell viability measured after 4 days by WST8 assay", "format": "functional, cell-based", "details": "MDA-MB-231, 96 h"}, "[4]": {"target": "T1, Protein cereblon/Cyclin-dependent kinase 9 (Homo sapiens) (UniProt P50750+Q96SW2)", "T1 sequence (P50750 whole entry, looked up)": "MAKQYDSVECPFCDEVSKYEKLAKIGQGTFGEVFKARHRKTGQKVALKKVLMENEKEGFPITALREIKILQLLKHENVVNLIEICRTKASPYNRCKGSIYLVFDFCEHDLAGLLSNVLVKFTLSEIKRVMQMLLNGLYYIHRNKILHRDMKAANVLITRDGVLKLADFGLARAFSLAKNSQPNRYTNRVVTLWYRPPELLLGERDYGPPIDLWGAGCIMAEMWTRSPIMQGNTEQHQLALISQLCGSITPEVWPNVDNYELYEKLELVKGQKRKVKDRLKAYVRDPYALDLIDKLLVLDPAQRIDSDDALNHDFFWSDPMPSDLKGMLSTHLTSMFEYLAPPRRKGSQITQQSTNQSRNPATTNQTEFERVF", "T1 sequence (Q96SW2 whole entry, looked up)": "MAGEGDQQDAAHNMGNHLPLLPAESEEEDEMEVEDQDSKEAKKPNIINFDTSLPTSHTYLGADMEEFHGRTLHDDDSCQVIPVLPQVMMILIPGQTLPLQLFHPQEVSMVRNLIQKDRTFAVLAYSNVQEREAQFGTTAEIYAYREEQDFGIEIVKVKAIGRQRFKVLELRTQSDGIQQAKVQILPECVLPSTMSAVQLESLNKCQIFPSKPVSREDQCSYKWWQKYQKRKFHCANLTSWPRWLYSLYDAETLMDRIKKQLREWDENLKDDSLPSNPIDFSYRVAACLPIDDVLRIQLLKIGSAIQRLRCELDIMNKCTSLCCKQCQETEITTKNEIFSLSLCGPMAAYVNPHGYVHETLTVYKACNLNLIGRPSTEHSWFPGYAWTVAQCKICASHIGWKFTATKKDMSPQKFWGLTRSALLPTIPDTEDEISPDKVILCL", "experiment": "Protac activity at CRBN/CDK9 in human MDA-MB-231 cells assessed as induction of degradation of CDK9 at 500 nM incubated for 8 hrs by Western blot analysis", "format": "cell-based"}, "[5]": {"target": "T1, Protein cereblon/Cyclin-dependent kinase 9 (Homo sapiens)", "experiment": "Protac activity at CRBN/CDK9 in human MDA-MB-231 cells assessed as induction of degradation of CDK9 at 500 nM measured after 2 hrs by Western blot analysis", "format": "cell-based"}, "[6]": {"target": "T1, Protein cereblon/Cyclin-dependent kinase 9 (Homo sapiens)", "experiment": "Protac activity at CRBN/CDK9 in human MDA-MB-231 cells assessed as induction of degradation of CDK9 measured after 4 to 8 hrs by Western blot analysis", "format": "cell-based", "details": "dose 0.01-2.5 µM, time 4-8 hrs"}, "[7]": {"target": "T1, Protein cereblon/Cyclin-dependent kinase 9 (Homo sapiens)", "experiment": "Protac activity at CRBN/CDK9 in human MDA-MB-231 cells assessed as induction of degradation of CDK9 pretreated with compound 44 at 500 nM incubated for 8 hrs by Western blot analysis", "format": "cell-based"}, "[8]": {"target": "T1, Protein cereblon/Cyclin-dependent kinase 9 (Homo sapiens)", "experiment": "Protac activity at CRBN/CDK9 in human MDA-MB-231 cells assessed as induction of degradation of CDK9 pretreated with thalidomide at 500 nM incubated for 8 hrs by Western blot analysis", "format": "cell-based"}, "[9]": {"target": "T1, Protein cereblon/Cyclin-dependent kinase 9 (Homo sapiens)", "experiment": "Protac activity at CRBN/CDK9 in human MDA-MB-231 cells assessed as induction of degradation of CDK9 pretreated with PR171 at 500 nM incubated for 8 hrs by Western blot analysis", "format": "cell-based"}, "[10]": {"target": "T1, Protein cereblon/Cyclin-dependent kinase 9 (Homo sapiens)", "experiment": "Protac activity at CRBN/CDK9 in human MDA-MB-231 cells assessed as induction of degradation of CDK9 pretreated with MLN4924 at 500 nM incubated for 8 hrs by Western blot analysis", "format": "cell-based"}, "[11]": {"target": "Protein cereblon/Cyclin-dependent kinase 1 (Homo sapiens) (UniProt P06493+Q96SW2)", "sequence (P06493 whole entry, looked up)": "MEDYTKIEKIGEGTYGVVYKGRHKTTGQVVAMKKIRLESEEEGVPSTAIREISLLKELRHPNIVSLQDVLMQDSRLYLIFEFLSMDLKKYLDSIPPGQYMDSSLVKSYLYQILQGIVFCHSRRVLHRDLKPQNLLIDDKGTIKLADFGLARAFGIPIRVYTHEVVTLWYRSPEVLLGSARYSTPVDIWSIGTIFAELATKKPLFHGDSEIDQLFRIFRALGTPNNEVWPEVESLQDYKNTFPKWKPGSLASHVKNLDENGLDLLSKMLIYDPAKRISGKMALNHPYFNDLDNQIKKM", "sequence (Q96SW2 whole entry, looked up)": "as the sequence (Q96SW2 whole entry, looked up) above", "experiment": "Protac activity at CRBN/CDK1 in human MDA-MB-231 cells assessed as induction of degradation of CDK1 at 0.01 to 2.5 uM incubated for 4 to 8 hrs by Western blot analysis", "format": "cell-based", "details": "dose 0.01-2.5 µM, time 4-8 hrs"}, "[12]": {"target": "Protein cereblon/Cyclin-dependent kinase 2 (Homo sapiens) (UniProt P24941+Q96SW2)", "experiment": "Protac activity at CRBN/CDK2 in human MDA-MB-231 cells assessed as induction of degradation of CDK2 at 0.01 to 2.5 uM incubated for 4 to 8 hrs by Western blot analysis", "format": "cell-based", "details": "dose 0.01-2.5 µM, time 4-8 hrs"}, "[13]": {"target": "Protein cereblon/Cyclin-dependent kinase 4 (Homo sapiens) (UniProt P11802+Q96SW2)", "sequence (P11802 2-303 limits assumed)": "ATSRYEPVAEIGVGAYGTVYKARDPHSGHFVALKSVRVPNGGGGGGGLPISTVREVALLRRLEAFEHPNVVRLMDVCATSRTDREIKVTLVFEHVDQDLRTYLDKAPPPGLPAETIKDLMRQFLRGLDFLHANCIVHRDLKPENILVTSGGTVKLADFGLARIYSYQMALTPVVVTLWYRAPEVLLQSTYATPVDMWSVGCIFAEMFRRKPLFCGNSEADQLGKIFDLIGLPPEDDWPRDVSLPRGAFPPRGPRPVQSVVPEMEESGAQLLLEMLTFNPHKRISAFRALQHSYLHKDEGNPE", "sequence (Q96SW2 whole entry partner)": "as the sequence (Q96SW2 whole entry, looked up) above", "experiment": "Protac activity at CRBN/CDK4 in human MDA-MB-231 cells assessed as induction of degradation of CDK4 at 0.01 to 2.5 uM incubated for 4 to 8 hrs by Western blot analysis", "format": "cell-based", "details": "dose 0.01-2.5 µM, time 4-8 hrs"}, "[14]": {"target": "Protein cereblon/Cyclin-dependent kinase 5 (Homo sapiens) (UniProt Q00535+Q96SW2)", "sequence (Q00535 whole entry, looked up)": "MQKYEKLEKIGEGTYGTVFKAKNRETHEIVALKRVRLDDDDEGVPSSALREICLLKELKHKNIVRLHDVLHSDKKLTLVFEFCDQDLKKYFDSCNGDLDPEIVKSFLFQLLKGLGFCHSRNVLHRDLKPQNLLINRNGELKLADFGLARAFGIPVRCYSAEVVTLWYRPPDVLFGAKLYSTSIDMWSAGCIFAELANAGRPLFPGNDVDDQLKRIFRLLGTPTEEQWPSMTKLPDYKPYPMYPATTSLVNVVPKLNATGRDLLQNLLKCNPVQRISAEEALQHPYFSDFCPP", "sequence (Q96SW2 whole entry, looked up)": "as the sequence (Q96SW2 whole entry, looked up) above", "experiment": "Protac activity at CRBN/CDK5 in human MDA-MB-231 cells assessed as induction of degradation of CDK5 at 0.01 to 2.5 uM incubated for 4 to 8 hrs by Western blot analysis", "format": "cell-based", "details": "dose 0.01-2.5 µM, time 4-8 hrs"}, "[15]": {"target": "Protein cereblon/Cyclin-dependent kinase 6 (Homo sapiens) (UniProt Q00534+Q96SW2)", "sequence (Q00534 whole entry, looked up)": "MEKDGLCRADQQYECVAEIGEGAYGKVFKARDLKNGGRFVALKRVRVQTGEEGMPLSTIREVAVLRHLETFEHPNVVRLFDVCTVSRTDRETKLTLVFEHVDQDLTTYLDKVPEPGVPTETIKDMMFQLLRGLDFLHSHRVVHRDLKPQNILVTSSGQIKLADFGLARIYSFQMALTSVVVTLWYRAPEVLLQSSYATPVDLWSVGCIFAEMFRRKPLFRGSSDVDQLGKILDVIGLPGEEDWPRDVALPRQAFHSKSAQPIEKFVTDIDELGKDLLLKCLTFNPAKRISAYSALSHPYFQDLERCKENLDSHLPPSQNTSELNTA", "sequence (Q96SW2 whole entry, looked up)": "as the sequence (Q96SW2 whole entry, looked up) above", "experiment": "Protac activity at CRBN/CDK6 in human MDA-MB-231 cells assessed as induction of degradation of CDK6 at 0.01 to 2.5 uM incubated for 4 to 8 hrs by Western blot analysis", "format": "cell-based", "details": "dose 0.01-2.5 µM, time 4-8 hrs"}, "[16]": {"target": "Protein cereblon/Cyclin-dependent kinase 7 (Homo sapiens) (UniProt P50613+Q96SW2)", "sequence (P50613 whole entry, looked up)": "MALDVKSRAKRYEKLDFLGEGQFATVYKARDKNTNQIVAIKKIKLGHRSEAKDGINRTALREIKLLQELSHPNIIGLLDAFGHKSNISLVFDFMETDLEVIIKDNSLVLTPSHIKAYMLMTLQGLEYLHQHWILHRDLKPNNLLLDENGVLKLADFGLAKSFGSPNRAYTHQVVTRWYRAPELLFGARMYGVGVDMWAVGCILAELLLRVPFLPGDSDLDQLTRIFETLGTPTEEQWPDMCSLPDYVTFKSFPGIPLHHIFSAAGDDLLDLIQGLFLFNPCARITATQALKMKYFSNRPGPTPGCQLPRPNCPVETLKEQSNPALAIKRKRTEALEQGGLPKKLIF", "sequence (Q96SW2 whole entry, looked up)": "as the sequence (Q96SW2 whole entry, looked up) above", "experiment": "Protac activity at CRBN/CDK7 in human MDA-MB-231 cells assessed as induction of degradation of CDK7 at 0.01 to 2.5 uM incubated for 4 to 8 hrs by Western blot analysis", "format": "cell-based", "details": "dose 0.01-2.5 µM, time 4-8 hrs"}, "[17]": {"test_system": "MDA-MB-231", "experiment": "Downregulation of CDK9 mRNA expression in human MDA-MB-231 cells at 0.5 uM incubated for 4 hrs by RNA-seq analysis", "format": "functional, cell-based"}, "[18]": {"experiment": "Downregulation of MCL1 gene expression in human MDA-MB-231 cells at 0.5 uM incubated for 4 hrs by quantitative RT-PCR based gene set enrichment analysis relative to control", "format": "functional"}, "[19]": {"experiment": "Downregulation of MYC gene expression in human MDA-MB-231 cells at 0.5 uM incubated for 4 hrs by quantitative RT-PCR based gene set enrichment analysis relative to control", "format": "functional"}, "[20]": {"test_system": "MDA-MB-231", "experiment": "Induction of apoptosis in human MDA-MB-231 cells assessed as apoptotic cells at 10 nM incubated for 48 hrs by Annexin V-FITC/PI analysis (reference value: 4.85%)", "format": "functional"}, "[21]": {"test_system": "MDA-MB-231", "experiment": "Induction of apoptosis in human MDA-MB-231 cells assessed as apoptotic cells at 100 nM incubated for 48 hrs by Annexin V-FITC/PI analysis (reference value: 4.85%)", "format": "functional"}, "[22]": {"test_system": "MDA-MB-231", "experiment": "Induction of apoptosis in human MDA-MB-231 cells assessed as apoptotic cells at 500 nM incubated for 48 hrs by Annexin V-FITC/PI analysis (reference value: 4.85%)", "format": "functional"}, "[23]": {"experiment": "Solubility of the compound", "format": "physicochemical"}, "[24]": {"target": "Protein cereblon/Eukaryotic peptide chain release factor GTP-binding subunit ERF3A (Homo sapiens) (UniProt Q96SW2+P15170)", "sequence (P15170 whole entry, looked up)": "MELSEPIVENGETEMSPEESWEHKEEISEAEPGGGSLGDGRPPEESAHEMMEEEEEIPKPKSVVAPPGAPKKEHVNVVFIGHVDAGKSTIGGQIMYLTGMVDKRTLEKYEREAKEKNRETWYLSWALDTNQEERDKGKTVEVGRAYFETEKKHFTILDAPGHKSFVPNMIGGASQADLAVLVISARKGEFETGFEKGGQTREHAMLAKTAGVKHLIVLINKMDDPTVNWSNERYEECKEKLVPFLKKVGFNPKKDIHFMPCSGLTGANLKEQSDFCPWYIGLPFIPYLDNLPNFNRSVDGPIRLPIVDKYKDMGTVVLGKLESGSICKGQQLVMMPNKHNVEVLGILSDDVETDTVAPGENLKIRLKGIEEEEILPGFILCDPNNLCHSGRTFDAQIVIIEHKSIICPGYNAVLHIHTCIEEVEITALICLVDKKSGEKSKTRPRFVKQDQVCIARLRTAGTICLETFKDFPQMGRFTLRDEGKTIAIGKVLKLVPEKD", "sequence (Q96SW2 whole entry, looked up)": "as the sequence (Q96SW2 whole entry, looked up) above", "experiment": "Protac activity at CRBN/GSPT1 in human MDA-MB-231 cells assessed as induction of degradation of GSPT1 incubated for 4 to 8 hrs by Western blot analysis", "format": "cell-based", "details": "time 4-8 hrs"}, "[25]": {"test_system": "Tumour", "experiment": "Induction of CDK9 degradation in tumor of human MDA-MB-231 cells xenografted in BALB/c mouse model at 0.15 mM intratumoral injection measured after 16 hrs by Western blot analysis relative to control", "format": "functional, Neoplasm"}, "[26]": {"test_system": "Tumour", "experiment": "Induction of CDK7 degradation in tumor of human MDA-MB-231 cells xenografted in BALB/c mouse model at 0.15 mM intratumoral injection measured after 16 hrs by Western blot analysis relative to control", "format": "functional, tissue-based", "details": "Neoplasm"}},
  "note": "Calls of active or inactive are those of the source. The rule behind the calls is not given here.",
  "data": [
    {"smiles": "CC(C)c1cnn2c(NCc3ccc(NC(=O)CCCCCCCOc4cccc5c4C(=O)N(C4CCC(=O)NC4=O)C5=O)cc3)nc(OC3CCN(C)CC3)nc12", "note": "(stereo unspecified)", "values": [
      {"measurement": "IC50", "setting": "[1]", "result": 66, "unit": "nM"},
      {"measurement": "IC50", "setting": "[2]", "result": 48, "unit": "nM"},
      {"measurement": "IC50", "setting": "[3]", "result": 51, "unit": "nM"},
      {"measurement": "Activity", "setting": "[4]", "result": "Active"},
      {"measurement": "Activity", "setting": "[5]", "result": 100, "unit": "%"},
      {"measurement": "Activity", "setting": "[6]", "result": "Dose-Dependent Effect"},
      {"measurement": "Activity", "setting": "[7]", "result": "inactive"},
      {"measurement": "Activity", "setting": "[8]", "result": "inactive"},
      {"measurement": "Activity", "setting": "[9]", "result": "inactive"},
      {"measurement": "Activity", "setting": "[10]", "result": "inactive"},
      {"measurement": "Activity", "setting": "[11]", "result": "inactive"},
      {"measurement": "Activity", "setting": "[12]", "result": "inactive"},
      {"measurement": "Activity", "setting": "[13]", "result": "inactive"},
      {"measurement": "Activity", "setting": "[14]", "result": "inactive"},
      {"measurement": "Activity", "setting": "[15]", "result": "inactive"},
      {"measurement": "Activity", "setting": "[16]", "result": "inactive"},
      {"measurement": "Activity", "setting": "[17]", "result": "inactive"},
      {"measurement": "inhibition at 0.5 µM", "setting": "[18]", "result": 59.6, "unit": "%"},
      {"measurement": "inhibition at 0.5 µM", "setting": "[19]", "result": 75.3, "unit": "%"},
      {"measurement": "Activity", "setting": "[20]", "result": 6.39, "unit": "%"},
      {"measurement": "Activity", "setting": "[21]", "result": 10.48, "unit": "%"},
      {"measurement": "Activity", "setting": "[22]", "result": 26.49, "unit": "%"},
      {"measurement": "solubility", "setting": "[23]", "result": "Insoluble"},
      {"measurement": "Activity", "setting": "[24]", "result": "inactive"},
      {"measurement": "Activity", "setting": "[25]", "result": 26, "unit": "%"},
      {"measurement": "Activity", "setting": "[26]", "result": "inactive"}
    ]}
  ]
}
